Consider 13 molecules from article PMC7487730, “Design, synthesis and biological evaluation of novel benzodioxole derivatives as COX inhibitors and cytotoxic agents” (BMC Chemistry, 2020).

One data set has as its target T1, ovine COX1 (Ovis aries, UniProt P05979).
T1 construct: purchased Cayman Chemical 560131 (kit)
T1 sequence (P05979 25-600): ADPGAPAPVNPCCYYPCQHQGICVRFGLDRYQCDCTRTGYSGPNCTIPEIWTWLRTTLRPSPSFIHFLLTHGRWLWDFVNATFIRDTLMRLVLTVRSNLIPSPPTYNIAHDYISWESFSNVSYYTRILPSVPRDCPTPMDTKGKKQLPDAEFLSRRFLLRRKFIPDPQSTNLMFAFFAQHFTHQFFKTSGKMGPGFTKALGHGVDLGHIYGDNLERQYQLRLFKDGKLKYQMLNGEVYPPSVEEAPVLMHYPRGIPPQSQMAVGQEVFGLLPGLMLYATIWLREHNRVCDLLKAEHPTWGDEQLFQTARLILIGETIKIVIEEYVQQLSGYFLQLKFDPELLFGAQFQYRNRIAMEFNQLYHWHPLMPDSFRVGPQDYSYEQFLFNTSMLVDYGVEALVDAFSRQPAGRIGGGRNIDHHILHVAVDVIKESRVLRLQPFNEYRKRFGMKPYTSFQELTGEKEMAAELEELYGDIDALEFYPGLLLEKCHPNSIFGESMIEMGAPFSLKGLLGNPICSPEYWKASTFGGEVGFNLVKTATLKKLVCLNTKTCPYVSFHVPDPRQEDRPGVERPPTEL
Nature of the data set: COX inhibitor screening assay kit (Cayman No. 560131), COX1. It is filed as biochemical. The protocol: All chemicals were purchased from Sigma-Aldrich and Alfa Aesar. Melting points were determined with an SMP-II Digital Melting Point Apparatus and are uncorrected. IR spectra were obtained using a Perkin Elmer Spectrum 400 FTIR/FTNIR spectrometer. ^1H-NMR and ^13C-NMR spectra were recorded in DMSO-d6 and were performed on two NMR instruments. […] The second was a Bruker 300 MHz-Avance III High-Performance Digital FT-NMR spectrometer at the NMR facility at the Doping and Narcotics Analysis Laboratory of the faculty of pharmacy, Anadolu University, Turkey (it was used for both ^1H-NMR and ^13C-NMR for the other compounds). Tetramethylsilane was used as the internal standard. All chemical shifts were recorded as d (ppm). […] HeLa Cervical Carcinoma cell line was purchased from ATCC (ATCC® CCL-2™), and the cyototoxicty test of the cell viability was assessed by the CellTilter 96® Aqueous One Solution Cell Proliferation (MTS) assay according to the manufacturer’s instructions (Promega Corporation, Madison, WI) (Additional file 1).
The assay was run in duplicate with three concentrations (50, 20, and 5 µM). […] The percentage inhibition of the three concentrations was used to calculate the IC50 [16].

Data set [1] can be described thus: MTS cytotoxicity assay on HeLa cells. The format is cell-based. As to conditions: human. The protocol: An MTS assay was used to determine the cytotoxic effect of Benzodioxole derivatives on HeLa (cervical carcinoma cells).
All chemicals were purchased from Sigma-Aldrich and Alfa Aesar. Melting points were determined with an SMP-II Digital Melting Point Apparatus and are uncorrected. IR spectra were obtained using a Perkin Elmer Spectrum 400 FTIR/FTNIR spectrometer. ^1H-NMR and ^13C-NMR spectra were recorded in DMSO-d6 and were performed on two NMR instruments. The first was a Bruker 500 MHz-Avance III High-Performance Digital FT-NMR spectrometer at the Faculty of Science, Department of Chemistry, The University of Jordan, Jordan (it was used for the ^1H-NMR of just one compound, 3e). The second was a Bruker 300 MHz-Avance III High-Performance Digital FT-NMR spectrometer at the NMR facility at the Doping and Narcotics Analysis Laboratory of the faculty of pharmacy, Anadolu University, Turkey (it was used for both ^1H-NMR and ^13C-NMR for the other compounds). Tetramethylsilane was used as the internal standard. All chemical shifts were recorded as d (ppm). […] The yellow product of this enzymatic reaction was determined using a UV spectrophotometer with a Microplate Reader (BioRad, Japan) at a wavelength of 415 nm. HeLa Cervical Carcinoma cell line was purchased from ATCC (ATCC® CCL-2™), and the cyototoxicty test of the cell viability was assessed by the CellTilter 96® Aqueous One Solution Cell Proliferation (MTS) assay according to the manufacturer’s instructions (Promega Corporation, Madison, WI) (Additional file 1).
HeLa Cervical Carcinoma was cultured in RPMI-1640 media and supplemented with 10% fetal bovine serum, 1% penicillin/streptomycin antibiotics and 1% L-glutamine. Cells were grown in a humidified atmosphere with 5% CO2 at 37 °C, and they were seeded in 2.6 × 10^4 cells/well in a 96-well plate. After 48 h, the cells were confluent, the media was changed, and cells were incubated with four concentrations (2, 1, 0.5, and 0.2 mM) of the tested compounds for 24 h. Cell viability was assessed by the CellTilter 96® Aqueous One Solution Cell Proliferation (MTS) Assay according to the manufacturer’s instructions (Promega Corporation, Madison, WI). Briefly, at the end of the treatment, 20 μL of MTS solution per 100 μL of media was added to each well and incubated at 37 °C for 2 h. Absorbance was measured at 490 nm.

The target of a further data set is T2, human recombinant COX2 (Homo sapiens, UniProt P35354).
T2 construct: purchased Cayman Chemical 560131 (kit)
T2 sequence (P35354 18-604): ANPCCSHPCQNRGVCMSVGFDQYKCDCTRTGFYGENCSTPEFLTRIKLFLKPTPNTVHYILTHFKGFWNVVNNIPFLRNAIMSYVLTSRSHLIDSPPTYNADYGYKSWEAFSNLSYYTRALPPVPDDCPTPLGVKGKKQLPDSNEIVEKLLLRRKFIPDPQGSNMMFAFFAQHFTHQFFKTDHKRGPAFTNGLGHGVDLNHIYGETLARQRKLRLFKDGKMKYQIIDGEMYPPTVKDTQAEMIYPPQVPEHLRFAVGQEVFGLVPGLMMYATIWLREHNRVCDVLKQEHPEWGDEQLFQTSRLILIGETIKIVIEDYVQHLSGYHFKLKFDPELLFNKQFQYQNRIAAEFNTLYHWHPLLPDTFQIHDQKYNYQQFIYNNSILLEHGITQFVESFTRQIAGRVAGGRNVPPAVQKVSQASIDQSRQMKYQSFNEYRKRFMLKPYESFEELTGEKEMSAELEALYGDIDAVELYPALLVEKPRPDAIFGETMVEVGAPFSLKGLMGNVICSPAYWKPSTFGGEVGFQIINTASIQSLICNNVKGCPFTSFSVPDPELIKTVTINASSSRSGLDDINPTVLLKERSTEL
Nature of the data set: COX inhibitor screening assay kit (Cayman No. 560131), COX2. It is filed as biochemical. As to conditions: for COX1/COX2 Ratio Selectivity: ratio of IC50 COX1 to IC50 COX2; for IC50: run in duplicate with three concentrations (50, 20, and 5 µM).

Setting [2] is: run in duplicate with three concentrations (50, 20, and 5 µM), read-out: The IC50 in µM of COX1.
Where [3] appears, read: HeLa cervical carcinoma cells (ATCC CCL-2), HeLa, 24 h incubation, MTS, read-out: HeLa Cell CC50 in milli-molar.

Where two headings read alike, the source gives them in different places.

Take `CC(C(=O)O)c1cccc(C(=O)c2ccccc2)c1` (stereo not drawn) [Ketoprofen, reference compound]: half-maximal inhibition against ovine COX1 (The IC50 in µM of COX1, run in duplicate with three concentrations (50, 20, and 5 µM)) (IC50) was put at 0.031 µM.

Regarding `COC(=O)Cc1cc2c(cc1C(=O)c1ccccc1I)OCO2` [3b, Methyl 2-(6-(2-iodobenzoyl)benzo[d][1,3]dioxol-5-yl)acetate], the IC50 – broadly, the concentration that gives 50% inhibition – at ovine COX1 (setting [2]) is 1.12 µM; at human recombinant COX2, 1.3 µM. In data set [1] (setting [3]), the CC50 (as a rule, the concentration at which the toxic effect on the cells reaches its halfway point) at 24 h stood at 228 µM. Moreover, the “COX1/COX2 Ratio Selectivity” value on human recombinant COX2 was found to be 0.862.

On to `COC(=O)Cc1cc2c(cc1C(=O)c1ccc(I)cc1)OCO2` [3c, Methyl 2-(6-(4-iodobenzoyl)benzo[d][1,3]dioxol-5-yl)acetate], for which the melting point (in general, the temperature, or range, at which the solid turns liquid) was in the range of 119 to 121 °C. The IC50 on ovine COX1 (setting [2]) is 27.1 µM. For the same molecule, in data set [1] (setting [3]), the CC50 at 24 h stood at 1790 µM. For the same molecule, at human recombinant COX2, the “COX1/COX2 Ratio Selectivity” value worked out at 0.723 and the IC50 stood at 37.5 µM.

On to `O=C(O)Cc1cc2c(cc1C(=O)c1ccccc1)OCO2` [4a, 2-(6-benzoylbenzo[d][1,3]dioxol-5-yl)acetic acid], for which the melting point fell in the range of 184.5 to 186.5 °C. Moreover, at ovine COX1 (setting [2]), the IC50 amounted to 1.45 µM. In addition, the CC50 at 24 h in data set [1] (setting [3]) came to 1940 µM. For the same molecule, on human recombinant COX2, the “COX1/COX2 Ratio Selectivity” value was 0.434 and the half-inhibitory concentration (IC50) is 3.34 µM.

As for `COC(=O)Cc1cc2c(cc1C(=O)c1ccc(Cl)cc1Cl)OCO2` [3f, Methyl 2-(6-(2,4-dichlorobenzoyl)benzo[d][1, 3]dioxol-5-yl)acetate], the melting point was 95 to 97 °C.

Consider `COC(=O)Cc1cc2c(cc1C(=O)c1ccccc1Br)OCO2` [3d, Methyl 2-(6-(2-bromobenzoyl)benzo[d][1,3]dioxol-5-yl)acetate], for which the melting point lay within 85 to 87 °C. Besides, the CC50 at 24 h in data set [1] (setting [3]) was determined as 1610 µM. Moreover, on human recombinant COX2, the “COX1/COX2 Ratio Selectivity” value amounted to 0.897 and the IC50 is 1.45 µM.

`O=C(O)Cc1cc2c(cc1C(=O)c1cccc(Br)c1)OCO2` [4e, 2-(6-(3-bromobenzoyl)benzo[d][1, 3]dioxol-5-yl)acetic acid] had a melting point of 154 to 156 °C. Further, the IC50 on ovine COX1 (setting [2]) was determined as 7.11 µM. In addition, in data set [1] (setting [3]), the CC50 at 24 h was determined as 437 µM. On human recombinant COX2, the “COX1/COX2 Ratio Selectivity” value was 0.144 and the IC50 is 49.3 µM.

In the case of `COC(=O)Cc1cc2c(cc1C(=O)c1ccccc1)OCO2` [3a, Methyl 2-(6-benzoylbenzo[d][1,3]dioxol-5-yl)acetate], the IC50 at ovine COX1 (setting [2]) turned out to be 12.3 µM. Moreover, in data set [1] (setting [3]), the CC50 at 24 h turned out to be 1490 µM. In addition, at human recombinant COX2, the “COX1/COX2 Ratio Selectivity” value worked out at 0.859 and the IC50 came to 14.3 µM.

As to `COC(=O)Cc1cc2c(cc1C(=O)c1cccc(Br)c1)OCO2` [3e, Methyl 2-(6-(3-bromobenzoyl)benzo[d][1, 3]dioxol-5-yl)acetate], the melting point was 72.5 to 74.5 °C. At ovine COX1 (setting [2]), the half-maximal inhibitory concentration (IC50) is 2.36 µM. The same molecule registered a CC50 at 24 h in data set [1] of 219 µM. Besides, on human recombinant COX2, the “COX1/COX2 Ratio Selectivity” value is recorded as 0.864 and the IC50 is 2.73 µM.

As to `O=C(O)Cc1cc2c(cc1C(=O)c1ccc(I)cc1)OCO2` [4c, 2-(6-(4-iodobenzoyl)benzo[d][1,3]dioxol-5-yl)acetic acid], the melting point was in the range of 239.5 to 241.5 °C. For the same molecule, the IC50 on ovine COX1 (setting [2]) was 33.7 µM. In data set [1] (setting [3]), the CC50 at 24 h stood at 1050 µM. Also, at human recombinant COX2, the “COX1/COX2 Ratio Selectivity” value came to 0.861 and the IC50 came to 39.1 µM.

With `O=C(O)Cc1cc2c(cc1C(=O)c1ccc(Cl)cc1Cl)OCO2` [4f, 2-(6-(2,4-dichlorobenzoyl)benzo[d][1,3]dioxol-5-yl)acetic acid], the melting point lay in the range of 168.5 to 170 °C. In addition, the IC50 on ovine COX1 (setting [2]) was determined as 0.725 µM. The CC50 at 24 h in data set [1] (setting [3]) was determined as 1020 µM. Besides, at human recombinant COX2, the “COX1/COX2 Ratio Selectivity” value stood at 0.169 and the IC50 worked out at 4.29 µM.

`O=C(O)Cc1cc2c(cc1C(=O)c1ccccc1I)OCO2` [4b, 2-(6-(2-iodobenzoyl)benzo[d][1,3]dioxol-5-yl)acetic acid] displayed a melting point of 147 to 149 °C. The IC50 at ovine COX1 (setting [2]) was determined as 7.67 µM. Further, the CC50 at 24 h in data set [1] (setting [3]) was found to be 697 µM. Moreover, on human recombinant COX2, the “COX1/COX2 Ratio Selectivity” value is listed as 0.250 and the IC50 turned out to be 30.7 µM.

`O=C(O)Cc1cc2c(cc1C(=O)c1ccccc1Br)OCO2` [4d, 2-(6-(2-bromobenzoyl)benzo[d][1,3]dioxol-5-yl)acetic acid] had a melting point of 145 to 147 °C. Also, the IC50 at ovine COX1 (setting [2]) stood at 4.25 µM. For the same molecule, the CC50 at 24 h in data set [1] (setting [3]) was 547 µM. Further, on human recombinant COX2, the “COX1/COX2 Ratio Selectivity” value was determined as 1.809 and the IC50 worked out at 2.35 µM.
